From patent publication US5300629A, “Bactericidal and/or bacteriostatic peptides isolated from hemolymph of honeybees” (Plant Genetic Systems, N.V., priority 1987, dated 1994)
Where a SMILES comes first, the peptide text is derived from it.

How the values were obtained:
Format in all cases: cell-based
[1] = tested on: Agrobacterium tumefaciens ATCC 143; assay: Inhibition zone assay; parameters: key: --: "-" means that no inhibition has been found
[2] = tested on: Rhizobium leguminosarum 720; assay: Inhibition zone assay; parameters: key: --: "-" means that no inhibition has been found
[3] = tested on: Corynebacterium insidiosum NCPPB 1109; assay: Inhibition zone assay; conditions: I and B 10 ul, L 5 ug
Experimental: (§1) Whole lymph or purified components, resuspended in PBS to a final volume equal to the starting material (heated lymph), was applied in 3 mm wells on agar plates seeded with the test organisms. Antibacterial activity was determined by measuring the growth-inhibition zones (in mm).

Clostridia = tested on: Clostridia
D. hansenii = assay: Growth-inhibition zone assay, first screening
Experimental: as §1

S. cerevisiae = assay: Growth-inhibition zone assay, first screening
Experimental: as §1

[4] = tested on: Pseudomonas aeruginosa ATCC 7700; assay: Inhibition zone assay; parameters: key: --: "-" means that no inhibition has been found
[5] = tested on: Azospirillum lipoferum ATCC 29707; assay: Inhibition zone assay; parameters: key: --: "-" means that no inhibition has been found; conditions: I and B 10 ul, L 5 ug
[6] = tested on: Agrobacterium rhizogenes ATCC 11325; assay: Inhibition zone assay; parameters: key: --: "-" means that no inhibition has been found; conditions: I and B 10 ul, L 5 ug
Klebsiella oxytoca KO2 = assay: Inhibition zone assay; parameters: key: --: "-" means that no inhibition has been found
E. coli NCTC 9001 = assay: Killing assay, growth inhibition in liquid medium; conditions: purified factors in PBS (7.5% LPG), 10^3 cells, optical density at 630 nm
Experimental: Bacterial development was monitored by measuring the optical densities and by plate counts. […] The purified factors resuspended in PBS (7.5% LPG) (FIG. 4A, 4B, 4C, 4D) were inoculated with 10^4 cells (C) or 10^3 cells (A, B and D) . Bacterial development was calculated by measuring the optical densities at 630 nm.

ATCC 17991 = assay: Inhibition zone assay; parameters: key: --: "-" means that no inhibition has been found; conditions: Salmonella marcescens ATCC 17991
[7] = tested on: Agrobacterium tumefaciens DSM 3129; assay: Inhibition zone assay; conditions: I and B 10 ul, L 5 ug
[8] = tested on: Rhodococcus equi ATCC 25729; assay: Inhibition zone assay; parameters: key: --: "-" means that no inhibition has been found; conditions: I and B 10 ul, L 5 ug
[9] = tested on: Salmonella infantis 81/257; assay: Inhibition zone assay; parameters: key: --: "-" means that no inhibition has been found; conditions: I and B 10 ul
[10] = tested on: Bacillus megaterium QMB 1551; assay: Inhibition zone assay; parameters: key: --: "-" means that no inhibition has been found; conditions: I and B 10 ul, L 5 ug
[11] = tested on: Flavobacterium devorans NRRL B-54; assay: Inhibition zone assay; parameters: key: --: "-" means that no inhibition has been found; conditions: I and B 10 ul, L 5 ug
[12] = tested on: Salmonella typhimurium NCTC 74; assay: Inhibition zone assay; parameters: key: --: "-" means that no inhibition has been found; conditions: I and B 10 ul
[13] = tested on: Citrobacter freundii ATCC 8090; assay: Inhibition zone assay; parameters: key: --: "-" means that no inhibition has been found
[14] = tested on: Serratia liquefaciens DSM 30125; assay: Inhibition zone assay; parameters: key: --: "-" means that no inhibition has been found; conditions: I 10 ul, L 5 ug
Shigella sonnei CQ26 = assay: Inhibition zone assay; parameters: key: --: "-" means that no inhibition has been found; conditions: I and B 10 ul
Experimental: as §1

Shigella flexneri CP 87 = assay: Inhibition zone assay; parameters: key: --: "-" means that no inhibition has been found; conditions: I 10 ul
Experimental: as §1

[15] = tested on: Corynebacterium michiganense pv. michiganense NCPPB 1573; assay: Inhibition zone assay; parameters: key: --: "-" means that no inhibition has been found
Experimental: as §1

[16] = tested on: Clostridium difficile Bart 1924; assay: Inhibition zone assay; parameters: key: --: "-" means that no inhibition has been found; conditions: I 10 ul
Experimental: as §1

[17] = tested on: Shigella flexneri NCTC 9950; assay: Inhibition zone assay; parameters: key: --: "-" means that no inhibition has been found; conditions: I and B 10 ul
Experimental: as §1

[18] = tested on: Streptococcus pyogenes NCTC 8193; assay: Inhibition zone assay; parameters: key: --: "-" means that no inhibition has been found; conditions: I 10 ul
[19] = tested on: Salmonella enteritidis 83/34; assay: Inhibition zone assay; parameters: key: --: "-" means that no inhibition has been found; conditions: I and B 10 ul
[20] = tested on: Enterobacter cloacae LMG 2783; assay: Inhibition zone assay; parameters: key: --: "-" means that no inhibition has been found; conditions: I and B 10 ul
[21] = tested on: Erwinia carotovora var. atroseptica NCPPB 549; assay: Inhibition zone assay; parameters: key: --: "-" means that no inhibition has been found; conditions: I and B 10 ul, L 5 ug
[22] = tested on: Serratia marcescens ATCC 17991; assay: Inhibition zone assay; parameters: key: --: "-" means that no inhibition has been found
[23] = tested on: Arthrobacter sp. NRRL B-3724; assay: Inhibition zone assay
[24] = tested on: Proteus morganii CuETM 77-83; assay: Inhibition zone assay; parameters: key: --: "-" means that no inhibition has been found; conditions: I and B 10 ul, L 5 ug
[25] = tested on: Escherichia coli NCTC 11601; assay: Inhibition zone assay; parameters: key: --: "-" means that no inhibition has been found; conditions: I 10 ul
[26] = tested on: Rhodococcus terrae ATCC 25594; assay: Inhibition zone assay; parameters: key: --: "-" means that no inhibition has been found; conditions: I and B 10 ul
[27] = tested on: Staphylococcus hominis STH B3; assay: Inhibition zone assay; parameters: key: --: "-" means that no inhibition has been found; conditions: L 5 ug
Bacillus cereus LMG 2098 = assay: Inhibition zone assay; parameters: key: --: "-" means that no inhibition has been found

## CC[C@H](C)[C@H](NC(=O)[C@H](CCCCN)NC(=O)[C@@H]1CCCN1C(=O)[C@H](CC(N)=O)NC(=O)[C@H](Cc1ccccc1)NC(=O)[C@@H]1CCCN1C(=O)CNC(=O)[C@H](CCC(N)=O)NC(=O)CNC(=O)[C@@H]1CCCN1C(=O)[C@H](Cc1ccccc1)NC(=O)[C@@H](NC(=O)[C@@H]1CCCN1C(=O)[C@H](Cc1ccccc1)NC(=O)[C@@H]1CCCN1C(=O)[C@H](CCCNC(=N)N)NC(=O)[C@H](CCCNC(=N)N)NC(=O)CNC(=O)[C@@H]1CCCN1C(=O)[C@H](CCC(N)=O)NC(=O)[C@@H]1CCCN1C(=O)[C@@H](NC(=O)[C@H](CC(N)=O)NC(=O)[C@@H]1CCCN1C(=O)[C@H](CC(C)C)NC(=O)[C@@H]1CCCN1C(=O)[C@@H](NC(=O)[C@@H](N)Cc1ccc(O)cc1)C(C)C)C(C)C)[C@@H](C)O)C(=O)N[C@@H](CCCCN)C(=O)N[C@@H](Cc1c[nH]c2ccccc12)C(=O)N1CCC[C@H]1C(=O)N[C@@H](CCC(N)=O)C(=O)NCC(=O)N[C@@H](Cc1ccc(O)cc1)C(=O)O [bee 9] (H-YVPLPNVPQPGRRPFPTFPGQGPFNPKIKWPQGY-OH)
[1]
  diameter of growth-inhibition zone: --
[2]
  diameter of growth-inhibition zone: --
[3]
  diameter of growth-inhibition zone: 7 mm
Clostridia
  susceptibility, in words: resistant
D. hansenii
  susceptibility of eucaryote strain: resistant
S. cerevisiae
  susceptibility of eucaryote strain: resistant
[4]
  diameter of growth-inhibition zone: --
[5]
  diameter of growth-inhibition zone: --
[6]
  diameter of growth-inhibition zone: --
Klebsiella oxytoca KO2
  diameter of growth-inhibition zone: --
E. coli NCTC 9001
  activity, growth inhibition in liquid medium: neither susceptible
ATCC 17991
  diameter of growth-inhibition zone: --
[7]
  diameter of growth-inhibition zone: 4 mm
[8]
  diameter of growth-inhibition zone: --
[9]
  diameter of growth-inhibition zone: --
[10]
  diameter of growth-inhibition zone: --
[11]
  diameter of growth-inhibition zone: --
[12]
  diameter of growth-inhibition zone: --
[13]
  diameter of growth-inhibition zone: --
[14]
  diameter of growth-inhibition zone: --
Shigella sonnei CQ26
  diameter of growth-inhibition zone: --
Shigella flexneri CP 87
  diameter of growth-inhibition zone: --
[15]
  diameter of growth-inhibition zone: --
[16]
  diameter of growth-inhibition zone: --
[17]
  diameter of growth-inhibition zone: --
[18]
  diameter of growth-inhibition zone: --
[19]
  diameter of growth-inhibition zone: --
[20]
  diameter of growth-inhibition zone: --
[21]
  diameter of growth-inhibition zone: --
[22]
  diameter of growth-inhibition zone: --
[23]
  diameter of growth-inhibition zone: 8 mm
[24]
  diameter of growth-inhibition zone: --
[25]
  diameter of growth-inhibition zone: --
[26]
  diameter of growth-inhibition zone: --
[27]
  diameter of growth-inhibition zone: --
Bacillus cereus LMG 2098
  diameter of growth-inhibition zone: --
